Data reported in US9636339B2, “Phenyl-dihydropyridine derivatives as aldosterone synthase inhibitors” (Hoffmann-La Roche Inc., priority 2013, dated 2017).
Values belong to the compound of their own block, whether it stands above or below them.

Tests used:
human CYP11B2 = human CYP11B2 (Homo sapiens (Human), UniProt P19099); assay: G-402 cellular enzyme assay, human CYP11B2 (aldosterone release); format: cell-based; settings: G-402 cells, 1 μM Deoxycorticosterone
Source text: (§1) Herein we identified the use of the G-402 cell line as a host cell to ectopically express (transiently or stably) enzymes of the CYP11 family. Specifically we developed stable G-402 cells expressing ectopically human CYP11B1, human CYP11B2, human CYP11A1, cynmolgus CYP11B1 or cynomolgus CYP11B2 enzyme activity. Importantly the identified cell line G-402 expresses co-factors (adrenodoxin and adrenodoxin reductase) important for the activity of the CYP11 family and no relevant enzyme activity of the CYP11 family (in comparison to H295R cells) was detected in these cells. Therefore the G-402 cell line is uniquely suited as a host cell for the ectopic expression of enzymes from the CYP11 family. G-402 cells can be obtained from ATCC (CRL-1440) and were originally derived from a renal leiomyoblastoma.
(§2) The expression plasmids contains the ORF for either human/cyno CYP11B1 or CYP11B2 under the control of a suitable promoter (CMV-promoter) and a suitable resistance marker (neomycin). Using standard techniques the expression plasmid is transfected into G-402 cells and these cells are then selected for expressing the given resistance markers. Individual cell-clones are then selected and assessed for displaying the desired enzymatic activity using 11-Deoxycorticosterone (Cyp11B2) or 11-Deoxycortisol (Cyp11B1) as a substrate.
(§3) G-402 cells expressing CYP11 constructs were established as described above and maintained in McCoy's 5a Medium Modified, ATCC Catalog No. 30-2007 containing 10% FCS and 400 μg/ml G418 (Geneticin) at 37° C. under an atmosphere of 5% CO2/95% air. Cellular enzyme assays were performed in DMEM/F12 medium containing 2.5% charcoal treated FCS and appropriate concentration of substrate (0.3-10 uM 11-Deoxycorticosterone, 11-Deoxycortisol or Corticosterone). For assaying enzymatic activity, cells were plated onto 96 well plates and incubated for 16 h. An aliquot of the supernatant is then transferred and analyzed for the concentration of the expected product (Aldosterone for CYP11B2; Cortisol for CYP11B1). The concentrations of these steroids can be determined using HTRF assays from CisBio analyzing either Aldosterone or Cortisol.
(§4) Inhibition of the release of produced steroids can be used as a measure of the respective enzyme inhibition by test compounds added during the cellular enzyme assay. The dose dependent inhibition of enzymatic activity by a compound is calculated by means of plotting added inhibitor concentrations (x-axes) vs. measured steroid/product level (y-axes). The inhibition is then calculated by fitting the following 4-parameter sigmoidal function (Morgan-Mercer-Flodin (MMF) model) to the raw data points using the least squares method:
(§5) [formula] wherein, A is the maximum y value, B is the EC50 factor determined using XLFit, C is the minimum y value and D is the slope value.
(§6) EC50 values for compounds claimed herein were tested with the G402-based assay system described. Cyp11B2 enzyme activity was tested in presence of 1 μM Deoxycorticosterone and variable amounts of inhibitors; Cyp11B1 enzyme activity was tested in presence of 1 μM Deoxycortisol and variable amounts of inhibitors.

human CYP11B1 = human CYP11B1 (Homo sapiens (Human), UniProt P15538); assay: G-402 cellular enzyme assay, human CYP11B1 (cortisol release); format: cell-based; settings: G-402 cells, 1 μM Deoxycortisol
human CYP11B1, sequence (P15538 25-503): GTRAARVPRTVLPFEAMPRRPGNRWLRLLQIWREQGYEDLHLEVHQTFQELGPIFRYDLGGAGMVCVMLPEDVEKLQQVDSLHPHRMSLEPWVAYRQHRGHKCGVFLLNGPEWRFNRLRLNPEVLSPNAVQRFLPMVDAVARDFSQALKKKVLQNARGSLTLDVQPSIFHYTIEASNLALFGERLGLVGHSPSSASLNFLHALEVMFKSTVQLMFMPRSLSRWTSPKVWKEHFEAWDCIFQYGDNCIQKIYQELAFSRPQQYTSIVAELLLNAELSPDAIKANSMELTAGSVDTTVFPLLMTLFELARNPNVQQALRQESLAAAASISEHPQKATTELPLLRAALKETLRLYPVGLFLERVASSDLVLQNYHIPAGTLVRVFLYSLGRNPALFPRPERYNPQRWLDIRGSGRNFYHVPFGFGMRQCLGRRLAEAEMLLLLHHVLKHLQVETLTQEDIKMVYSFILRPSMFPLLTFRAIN
Source text: as §1, §2, §3, §4, §5, §6

human CYP11B2, sequence (P19099 25-503): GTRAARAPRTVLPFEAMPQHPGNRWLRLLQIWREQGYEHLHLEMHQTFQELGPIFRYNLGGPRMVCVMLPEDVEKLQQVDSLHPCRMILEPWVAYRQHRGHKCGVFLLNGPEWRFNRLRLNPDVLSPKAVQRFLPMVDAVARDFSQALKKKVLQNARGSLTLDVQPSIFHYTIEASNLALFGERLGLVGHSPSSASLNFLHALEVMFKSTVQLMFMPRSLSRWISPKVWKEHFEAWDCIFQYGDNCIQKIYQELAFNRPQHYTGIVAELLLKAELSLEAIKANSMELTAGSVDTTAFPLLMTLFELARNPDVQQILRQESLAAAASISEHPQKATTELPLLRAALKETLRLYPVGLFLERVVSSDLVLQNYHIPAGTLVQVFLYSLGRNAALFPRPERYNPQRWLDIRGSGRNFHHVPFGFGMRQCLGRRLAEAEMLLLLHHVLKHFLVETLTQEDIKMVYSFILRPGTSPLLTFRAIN

SMILES: CCCNC(=O)CC1CCc2c(-c3ccc(C(F)(F)F)c(F)c3)cncc21 (racemic) [Example 4, (rac)-2-[4-[3-Fluoro-4-(trifluoromethyl)phenyl]-6,7-dihydro-5H-cyclopenta[c]pyridin-7-yl]-N-propyl-acetamide]
EC50 (human CYP11B2): 0.021 µM
EC50 (human CYP11B1): 0.112 µM

SMILES: O=C(CC1CCc2c(-c3ccc(C(F)(F)F)c(F)c3)cncc21)NCC1CC1 (racemic) [Example 6, (rac)-N-(Cyclopropylmethyl)-2-[4-[3-fluoro-4-(trifluoromethyl)phenyl]-6,7-dihydro-5H-cyclopenta[c]pyridin-7-yl]acetamide]
EC50 (human CYP11B2): 0.024 µM
EC50 (human CYP11B1): 0.331 µM

SMILES: COCCNC(=O)CC1CCc2c(-c3ccc(C(F)(F)F)c(F)c3)cncc21 (racemic) [Example 7, (rac)-2-[4-[3-Fluoro-4-(trifluoromethyl)phenyl]-6,7-dihydro-5H-cyclopenta[c]pyridin-7-yl]-N-(2-methoxyethyl)acetamide]
EC50 (human CYP11B2): 0.032 µM
EC50 (human CYP11B1): 0.582 µM

SMILES: CN(C)C(=O)CC1CCc2c(-c3ccc(C(F)(F)F)cc3F)cncc21 (racemic) [Example 13, (rac)-2-[4-[2-Fluoro-4-(trifluoromethyl)phenyl]-6,7-dihydro-5H-cyclopenta[c]pyridin-7-yl]-N,N-dimethyl-acetamide]
EC50 (human CYP11B2): 0.067 µM
EC50 (human CYP11B1): 9.37 µM

SMILES: CCN(C)C(=O)CC1CCc2c(-c3ccc(C(F)(F)F)cc3F)cncc21 (racemic) [Example 14, (rac)-N-Ethyl-2-[4-[2-fluoro-4-(trifluoromethyl)phenyl]-6,7-dihydro-5H-cyclopenta[c]pyridin-7-yl]-N-methyl-acetamide]
EC50 (human CYP11B2): 0.044 µM
EC50 (human CYP11B1): 2.12 µM

SMILES: CCN(C(=O)CC1CCc2c(-c3ccc(C(F)(F)F)cc3F)cncc21)C1CC1 (racemic) [Example 17, (rac)-N-Cyclopropyl-N-ethyl-2-[4-[2-fluoro-4-(trifluoromethyl)phenyl]-6,7-dihydro-5H-cyclopenta[c]pyridin-7-yl]acetamide]
EC50 (human CYP11B2): 0.029 µM
EC50 (human CYP11B1): 0.745 µM

SMILES: O=C(CC1CCc2c(-c3ccc(C(F)(F)F)cc3F)cncc21)N1CCC1 (racemic) [Example 18, (rac)-1-(Azetidin-1-yl)-2-[4-[2-fluoro-4-(trifluoromethyl)phenyl]-6,7-dihydro-5H-cyclopenta[c]pyridin-7-yl]ethanone]
EC50 (human CYP11B2): 0.048 µM
EC50 (human CYP11B1): 2.68 µM

SMILES: O=C(CC1CCc2c(-c3ccc(C(F)(F)F)cc3F)cncc21)N1CC(CO)C1 (racemic) [Example 19, (rac)-2-[4-[2-Fluoro-4-(trifluoromethyl)phenyl]-6,7-dihydro-5H-cyclopenta[c]pyridin-7-yl]-1-[3-(hydroxymethyl)azetidin-1-yl]ethanone]
EC50 (human CYP11B2): 0.045 µM
EC50 (human CYP11B1): 1.16 µM

SMILES: COC1CN(C(=O)CC2CCc3c(-c4ccc(C(F)(F)F)cc4F)cncc32)C1 (racemic) [Example 20, (rac)-2-[4-[2-Fluoro-4-(trifluoromethyl)phenyl]-6,7-dihydro-5H-cyclopenta[c]pyridin-7-yl]-1-(3-methoxyazetidin-1-yl)ethanone]
EC50 (human CYP11B2): 0.053 µM
EC50 (human CYP11B1): 1.49 µM

SMILES: CCOC(=O)CC1CCCc2c(-c3ccc(C(F)(F)F)cc3F)cncc21 (racemic) [Example 23, (rac)-Ethyl 2-[4-[2-fluoro-4-(trifluoromethyl)phenyl]-5,6,7,8-tetrahydroisoquinolin-8-yl]acetate]
EC50 (human CYP11B2): 0.027 µM
EC50 (human CYP11B1): 1.89 µM

The next compounds have a lower EC50 (human CYP11B2) than those just listed; values first:

EC50 (human CYP11B2): 0.009 µM
EC50 (human CYP11B1): 0.084 µM
SMILES: CCOC(=O)CC1CCc2c(-c3ccc(C(F)(F)F)c(F)c3)cncc21 (racemic) [Example 1, (rac)-Ethyl 2-[4-[3-fluoro-4-(trifluoromethyl)phenyl]-6,7-dihydro-5H-cyclopenta[c]pyridin-7-yl]acetate]

EC50 (human CYP11B2): 0.017 µM
EC50 (human CYP11B1): 0.199 µM
SMILES: CNC(=O)CC1CCc2c(-c3ccc(C(F)(F)F)c(F)c3)cncc21 (racemic) [Example 2, (rac)-2-[4-[3-Fluoro-4-(trifluoromethyl)phenyl]-6,7-dihydro-5H-cyclopenta[c]pyridin-7-yl]-N-methyl-acetamide]

EC50 (human CYP11B2): 0.013 µM
EC50 (human CYP11B1): 0.069 µM
SMILES: CCNC(=O)CC1CCc2c(-c3ccc(C(F)(F)F)c(F)c3)cncc21 (racemic) [Example 3, (rac)-2-[4-[3-Fluoro-4-(trifluoromethyl)phenyl]-6,7-dihydro-5H-cyclopenta[c]pyridin-7-yl]-N-ethyl-acetamide]

EC50 (human CYP11B2): 0.013 µM
EC50 (human CYP11B1): 0.217 µM
SMILES: O=C(CC1CCc2c(-c3ccc(C(F)(F)F)c(F)c3)cncc21)NC1CC1 (racemic) [Example 5, (rac)-N-Cyclopropyl-2-[4-[3-fluoro-4-(trifluoromethyl)phenyl]-6,7-dihydro-5H-cyclopenta[c]pyridin-7-yl]acetamide]

EC50 (human CYP11B2): 0.002 µM
EC50 (human CYP11B1): 0.01 µM
SMILES: O=C(CC1CCc2c(-c3ccc(C(F)(F)F)c(F)c3)cncc21)N1CCCCC1 (racemic) [Example 8, (rac)-2-[4-[3-Fluoro-4-(trifluoromethyl)phenyl]-6,7-dihydro-5H-cyclopenta[c]pyridin-7-yl]-1-(1-piperidyl)ethanone]

EC50 (human CYP11B2): 0.02 µM
EC50 (human CYP11B1): 0.152 µM
SMILES: O=C(CC1CCc2c(-c3ccc(C(F)(F)F)c(F)c3)cncc21)N1CCOCC1 (racemic) [Example 9, (rac)-2-[4-[3-Fluoro-4-(trifluoromethyl)phenyl]-6,7-dihydro-5H-cyclopenta[c]pyridin-7-yl]-1-morpholino-ethanone]

EC50 (human CYP11B2): 0.017 µM
EC50 (human CYP11B1): 0.18 µM
SMILES: O=C(CC1CCc2c(-c3ccc(C(F)(F)F)c(F)c3)cncc21)Nc1ccon1 (racemic) [Example 10, (rac)-2-[4-[3-Fluoro-4-(trifluoromethyl)phenyl]-6,7-dihydro-5H-cyclopenta[c]pyridin-7-yl]-N-isoxazol-3-yl-acetamide]

EC50 (human CYP11B2): 0.008 µM
EC50 (human CYP11B1): 0.03 µM
SMILES: O=C(CC1CCc2c(-c3ccc(C(F)(F)F)c(F)c3)cncc21)Nc1cc[nH]n1 (racemic) [Example 11, (rac)-2-[4-[3-Fluoro-4-(trifluoromethyl)phenyl]-6,7-dihydro-5H-cyclopenta[c]pyridin-7-yl]-N-(1H-pyrazol-3-yl)acetamide]

EC50 (human CYP11B2): 0.018 µM
EC50 (human CYP11B1): 1.31 µM
SMILES: CC(C)N(C)C(=O)CC1CCc2c(-c3ccc(C(F)(F)F)cc3F)cncc21 (racemic) [Example 15, (rac)-2-[4-[2-Fluoro-4-(trifluoromethyl)phenyl]-6,7-dihydro-5H-cyclopenta[c]pyridin-7-yl]-N-isopropyl-N-methyl-acetamide]

EC50 (human CYP11B2): 0.006 µM
EC50 (human CYP11B1): 0.211 µM
SMILES: CN(C(=O)CC1CCc2c(-c3ccc(C(F)(F)F)cc3F)cncc21)C1CC1 (racemic) [Example 16, (rac)-N-Cyclopropyl-2-[4-[2-fluoro-4-(trifluoromethyl)phenyl]-6,7-dihydro-5H-cyclopenta[c]pyridin-7-yl]-N-methyl-acetamide]

EC50 (human CYP11B2): 0.012 µM
EC50 (human CYP11B1): 0.507 µM
SMILES: O=C(CC1CCc2c(-c3ccc(C(F)(F)F)cc3F)cncc21)N1CCCC1 (racemic) [Example 21, (rac)-2-[4-[2-Fluoro-4-(trifluoromethyl)phenyl]-6,7-dihydro-5H-cyclopenta[c]pyridin-7-yl]-1-pyrrolidin-1-yl-ethanone]

EC50 (human CYP11B2): 0.006 µM
EC50 (human CYP11B1): 0.278 µM
SMILES: C[C@H]1CCCN1C(=O)CC1CCc2c(-c3ccc(C(F)(F)F)cc3F)cncc21 (mixture of isomers) [Example 22, (rac)-2-[4-[2-Fluoro-4-(trifluoromethyl)phenyl]-6,7-dihydro-5H-cyclopenta[c]pyridin-7-yl]-1-[(2S)-2-methylpyrrolidin-1-yl]ethanone]
